Key:
[1] = Shuttle-box, acquisition of two-way conditioned avoidance reflex; type: in vivo
Method: The acquisition of a two-way conditioned avoidance reflex (CAR) was analyzed in the shuttle-box during 5 consecutive days. […] It consists of six boxes, each is separated inside by a barrier with a small gate in the middle. […] They were given 100 trials per day. One trial consisted of 15 s intertrial interval, followed by 15 s CS. The last 5 s of CS overlapped the first s of US. At each learning session the number of CAR and intersignal reactions (IR) was automatically counted and evaluated by multiway analysis of variance (ANOVA).

[2] = Effect on basal metabolism (O2 consumption); type: in vivo, rats; conditions: urethane 0.6 g/kg i.p., 30° C.
Method: The O2 consumption of rats was measured by the method of Issekutz and Issekutz (1952) at constant temperature (30° C.).
O2 consumption of the animals was expressed in ml/h and calculated for body surface, and given finally in ml/h/dm^2. Following injection of urethane and the basal O2 consumption was measured during 30 minutes. This was followed by the injection of the test substance and O2 consumption was registered immediately afterwards. The difference between the highest O2 consumption and the basal value was expressed in percent.
O2 consumption of the animals was calculated according to the following equation: [formula] V=2000 cm^3 P=pressure fall (mmHg)
T=period of measurement (h)
O2 consumption was calculated for body surface and expressed as ml/dm^2 /h. Body surface was calculated on the basis of the "Diack" formula: […]

[3] = Measurement of motility in the shuttle-box; type: in vivo; conditions: 30-minute observation
Method: The apparatus described in the shuttle-box test is used also for investigating the motility of animals. In case of motility experiment all the stimuli are switched off and the animals are allowed to move freely from one compartment of the box to the other. […] Significancy is calculated by Student's test for two means.

serotonin (5HT) = assay: 5HT level and turnover rate of 5HT in rat brain parts; type: in vivo; conditions: 1 hr after 30 mg/kg s.c.
Method: (§1) 11. The turnover rate of dopamine (TRDA), noradrenaline (TRNA) and serotonin (TR5 HT) was measured 1 hr after the injection of 30 mg/kg s.c. 2-methyl-thiazolo[4,5-c]quinoline-ethanesulphonate.

dopamine (DA) = assay: DA level and turnover rate of DA in rat striatum; type: in vivo; conditions: 1 hr after 30 mg/kg s.c.
Method: as §1

[4] = Screening test: one session conditioning / unconditioned reflex, glass cylinder jump; type: in vivo, rats; conditions: 0.025 mg/kg
Method: Was elaborated for studying learning and retention of rats during one session conditioning.
During conditioning rats are trained to jump onto the top of glass cylinder by the electric foot-shock (110 V). The escape reaction (unconditioned reflex, UR) is paired with a bell as conditioned stimulus. The criterion of learning is that conditioned reflex (CR) should be elicited 10 times with 10 s intervals without reinforcement. Retention of CR is taken positive when 24 h following the experiment CR can be elicited. In these experiments animals are distributed into 4 categories on the basis of their learning ability.

Structure (SMILES): Cc1nc2cnc3ccccc3c2s1.Cl [A compound, 2-methyl-thiazolo[4,5-c]quinoline-hydrochloride]
- acquisition of conditioned reflex, number of positive responses (F) ([1]; 5 mg/kg s.c., day 1): 17.8
- number of intersignal reactions (IR) ([1]; 5 mg/kg s.c., day 1): 9.5
- number of negative responses (-f) ([1]; 5 mg/kg s.c., day 1): 14.4
- acquisition of conditioned reflex, number of positive responses (F) ([1]; 5 mg/kg s.c., day 2): 29.6
- number of intersignal reactions (IR) ([1]; 5 mg/kg s.c., day 2): 8.9
- number of negative responses (-f) ([1]; 5 mg/kg s.c., day 2): 23.0
- acquisition of conditioned reflex, number of positive responses (F) ([1]; 5 mg/kg s.c., day 3): 24.3
- number of intersignal reactions (IR) ([1]; 5 mg/kg s.c., day 3): 3.2
- number of negative responses (-f) ([1]; 5 mg/kg s.c., day 3): 24.6
- acquisition of conditioned reflex, number of positive responses (F) ([1]; 5 mg/kg s.c., day 4): 23.0
- number of intersignal reactions (IR) ([1]; 5 mg/kg s.c., day 4): 2.9
- number of negative responses (-f) ([1]; 5 mg/kg s.c., day 4): 25.4
- acquisition of conditioned reflex, number of positive responses (F) ([1]; 5 mg/kg s.c., day 5): 29.4
- number of intersignal reactions (IR) ([1]; 5 mg/kg s.c., day 5): 2.3
- number of negative responses (-f) ([1]; 5 mg/kg s.c., day 5): 27.5
- acquisition of conditioned reflex, number of positive responses (F) ([1]; 10 mg/kg s.c., day 1): 12.0
- number of intersignal reactions (IR) ([1]; 10 mg/kg s.c., day 1): 8.9
- number of negative responses (-f) ([1]; 10 mg/kg s.c., day 1): 70.4
- acquisition of conditioned reflex, number of positive responses (F) ([1]; 10 mg/kg s.c., day 2): 14.7
- number of intersignal reactions (IR) ([1]; 10 mg/kg s.c., day 2): 7.3
- number of negative responses (-f) ([1]; 10 mg/kg s.c., day 2): 55.3
- acquisition of conditioned reflex, number of positive responses (F) ([1]; 10 mg/kg s.c., day 3): 7.2
- number of intersignal reactions (IR) ([1]; 10 mg/kg s.c., day 3): 2.7
- number of negative responses (-f) ([1]; 10 mg/kg s.c., day 3): 58.2
- acquisition of conditioned reflex, number of positive responses (F) ([1]; 10 mg/kg s.c., day 4): 5.5
- number of intersignal reactions (IR) ([1]; 10 mg/kg s.c., day 4): 2.1
- number of negative responses (-f) ([1]; 10 mg/kg s.c., day 4): 66.8
- acquisition of conditioned reflex, number of positive responses (F) ([1]; 10 mg/kg s.c., day 5): 7.3
- number of intersignal reactions (IR) ([1]; 10 mg/kg s.c., day 5): 2.1
- number of negative responses (-f) ([1]; 10 mg/kg s.c., day 5): 68.2
- acquisition of conditioned reflex, number of positive responses (F) ([1]; 25 mg/kg s.c., day 1): 7.0
- number of intersignal reactions (IR) ([1]; 25 mg/kg s.c., day 1): 10.7
- number of negative responses (-f) ([1]; 25 mg/kg s.c., day 1): 83.6
- acquisition of conditioned reflex, number of positive responses (F) ([1]; 25 mg/kg s.c., day 2): 6.6
- number of intersignal reactions (IR) ([1]; 25 mg/kg s.c., day 2): 5.7
- number of negative responses (-f) ([1]; 25 mg/kg s.c., day 2): 85.1
- acquisition of conditioned reflex, number of positive responses (F) ([1]; 25 mg/kg s.c., day 3): 2.6
- number of intersignal reactions (IR) ([1]; 25 mg/kg s.c., day 3): 4.4
- number of negative responses (-f) ([1]; 25 mg/kg s.c., day 3): 94.3
- acquisition of conditioned reflex, number of positive responses (F) ([1]; 25 mg/kg s.c., day 4): 1.6
- number of intersignal reactions (IR) ([1]; 25 mg/kg s.c., day 4): 3.8
- number of negative responses (-f) ([1]; 25 mg/kg s.c., day 4): 93.8
- acquisition of conditioned reflex, number of positive responses (F) ([1]; 25 mg/kg s.c., day 5): 3.1
- number of intersignal reactions (IR) ([1]; 25 mg/kg s.c., day 5): 4.2
- number of negative responses (-f) ([1]; 25 mg/kg s.c., day 5): 95.0
- rate of metabolism / O2 consumption [2]: slightly
- motility (spontaneous crossings of the gate) [3]: slight motility decreasing effect

Structure (SMILES): Cc1nc2cnc3ccccc3c2s1 [B compound, 2-methyl-thiazolo[4,5-c]quinoline-ethanesulfonate]
- acquisition of conditioned reflex, number of positive responses (F) ([1]; 10 mg/kg s.c., day 1): 7.5
- number of intersignal reactions (IR) ([1]; 10 mg/kg s.c., day 1): 11.4
- number of negative responses (-f) ([1]; 10 mg/kg s.c., day 1): 76.0
- acquisition of conditioned reflex, number of positive responses (F) ([1]; 10 mg/kg s.c., day 2): 20.2
- number of intersignal reactions (IR) ([1]; 10 mg/kg s.c., day 2): 9.1
- number of negative responses (-f) ([1]; 10 mg/kg s.c., day 2): 40.8
- acquisition of conditioned reflex, number of positive responses (F) ([1]; 10 mg/kg s.c., day 3): 20.2
- number of intersignal reactions (IR) ([1]; 10 mg/kg s.c., day 3): 7.6
- number of negative responses (-f) ([1]; 10 mg/kg s.c., day 3): 29.3
- acquisition of conditioned reflex, number of positive responses (F) ([1]; 10 mg/kg s.c., day 4): 17.8
- number of intersignal reactions (IR) ([1]; 10 mg/kg s.c., day 4): 4.5
- number of negative responses (-f) ([1]; 10 mg/kg s.c., day 4): 29.9
- acquisition of conditioned reflex, number of positive responses (F) ([1]; 10 mg/kg s.c., day 5): 14.5
- number of intersignal reactions (IR) ([1]; 10 mg/kg s.c., day 5): 3.3
- number of negative responses (-f) ([1]; 10 mg/kg s.c., day 5): 37.5
- acquisition of conditioned reflex, number of positive responses (F) ([1]; 25 mg/kg s.c., day 1): 8.7
- number of intersignal reactions (IR) ([1]; 25 mg/kg s.c., day 1): 12.4
- number of negative responses (-f) ([1]; 25 mg/kg s.c., day 1): 54.9
- acquisition of conditioned reflex, number of positive responses (F) ([1]; 25 mg/kg s.c., day 2): 4.2
- number of intersignal reactions (IR) ([1]; 25 mg/kg s.c., day 2): 5.0
- number of negative responses (-f) ([1]; 25 mg/kg s.c., day 2): 67.4
- acquisition of conditioned reflex, number of positive responses (F) ([1]; 25 mg/kg s.c., day 3): 8.9
- number of intersignal reactions (IR) ([1]; 25 mg/kg s.c., day 3): 9.2
- number of negative responses (-f) ([1]; 25 mg/kg s.c., day 3): 74.1
- acquisition of conditioned reflex, number of positive responses (F) ([1]; 25 mg/kg s.c., day 4): 4.0
- number of intersignal reactions (IR) ([1]; 25 mg/kg s.c., day 4): 4.9
- number of negative responses (-f) ([1]; 25 mg/kg s.c., day 4): 80.1
- acquisition of conditioned reflex, number of positive responses (F) ([1]; 25 mg/kg s.c., day 5): 2.5
- number of intersignal reactions (IR) ([1]; 25 mg/kg s.c., day 5): 3.3
- number of negative responses (-f) ([1]; 25 mg/kg s.c., day 5): 85.0
- 5HT level (serotonin (5HT); brainstem): 792.5 ± 36.9 ng/g
- TR5HT (turnover rate of 5HT) (serotonin (5HT); brainstem): 237.2 ng/g/h
- 5HT level (serotonin (5HT); teldiencephalon): 457.9 ± 24.2 ng/g
- TR5HT (turnover rate of 5HT) (serotonin (5HT); teldiencephalon): 53.9 ng/g/h
- DA level (dopamine (DA)): 9.14 ± 0.49 µg/g
- TRDA (turnover rate of DA) (dopamine (DA)): 1.4 ng/g/h

Structure (SMILES): O=C(CCCN1CCC(O)(c2ccc(Cl)cc2)CC1)c1ccc(F)cc1 [Haloperidol, reference compound]
- inhibition of the development of conditioned reflex [4]: strong inhibition
- rate of metabolism / O2 consumption [2]: slightly decreased
